Our source for the GI50 and TGI values is PubChem BioAssay (NCI).

Each structure is given as a SMILES string.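 Briefly, cells in 96-well plates were exposed to five compound concentrations for 48 h, and endpoints were estimated by linear interpolation. GI50 marks 50% less growth. TGI marks complete inhibition of growth.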

One assay concerns MALME-3M melanoma. The assay can be described thus: NCI anticancer screen, dose series, 48 h.
As for `COc1cc(C2=C(c3cn(C)c4ccccc34)COC2=O)cc(OC)c1OC`, the GI50 is 474 nM and the TGI came to 14.7 µM.

A further assay concerns MDA-MB-231 breast. The assay can be described thus: NCI anticancer screen, dose series, 48 h.
For `Nc1nc(SN=Nc2ccc(S(N)(=O)=O)cc2)c2[nH]cnc2n1`, the GI50 is 722 nM and the TGI is more than 100 µM.

As to `CCc1ccccc1NC(=O)c1sc2nc3c(cc2c1N)C(=O)CCC3`, the GI50 was 1490 nM and the TGI is more than 100 µM.

Take `CC(C)CNC(=O)O`: the TGI is more than 100 µM.

`C[C@]12CC[C@@H]3c4ccc(O)cc4CC[C@H]3[C@@H]1CC[C@@H]2NS(=O)(=O)c1cccc(F)c1`: the GI50 is 3640 nM and the TGI worked out at 13.6 µM.

In turn, `CCOC(=O)c1c[nH]c2oc(/C=N/N3CC(CN4CCOCC4)OC3=O)cc2c1=O` (stereo not drawn) yielded a TGI of more than 100 µM.

For `CCC(C)(C)c1ccc(OCCCCCCN2CCNCC2)cc1`, the GI50 was 1440 nM and the TGI turned out to be 3.11 µM.

The compound `N#CC(=NCCO)C1=C(O)c2ccccc2C1=O` registered a TGI of more than 100 µM.

Consider `NC(CS/C(Cl)=C/Cl)C(=O)O` (stereo not drawn), for which the GI50 is more than 100000 nM and the TGI was more than 100 µM.

Consider `CCn1c(CO)nn(-c2cc(O[C@@H](C)C(F)(F)F)c(C(=O)Nc3c(F)cccc3Cl)cc2F)c1=O`, for which the GI50 was more than 20100 nM and the TGI is more than 100 µM.

Take `CC1CCC(=O)C(C(=O)CC2CC(=O)NC(=O)C2)C1` (stereo not drawn): the TGI is more than 100 µM.

For the compound `O=C(Nc1ccc(CO)cc1)c1coc2ccccc2c1=O`, the GI50 was more than 100000 nM and the TGI was more than 100 µM.

As for `CC(=O)/C=C/c1ccc(C#Cc2ccccc2)s1`, the GI50 was 15000 nM and the TGI is 28.2 µM.

On to `COc1cc(C2=C(c3cn(C)c4ccccc34)COC2=O)cc(OC)c1OC`, for which the GI50 is 340 nM and the TGI was more than 100 µM.

Another assay has as its system OVCAR-3 ovarian. In words: NCI anticancer screen, dose series, 48 h.
For `Nc1nc(SN=Nc2ccc(S(N)(=O)=O)cc2)c2[nH]cnc2n1`, the GI50 was 511 nM and the TGI was 7.93 µM.

On to `CCc1ccccc1NC(=O)c1sc2nc3c(cc2c1N)C(=O)CCC3`, for which the GI50 was 383 nM and the TGI was 16 µM.

Compound `CC(C)CNC(=O)O` came in with a TGI of more than 100 µM.

Compound `CCOC(=O)c1c[nH]c2oc(/C=N/N3CC(CN4CCOCC4)OC3=O)cc2c1=O` (stereo not drawn) displayed a TGI of more than 100 µM.

Regarding `CCC(C)(C)c1ccc(OCCCCCCN2CCNCC2)cc1`, the GI50 was 2730 nM and the TGI worked out at 7.86 µM.

`N#CC(=NCCO)C1=C(O)c2ccccc2C1=O`: the TGI was more than 100 µM.

As to `NC(CS/C(Cl)=C/Cl)C(=O)O` (stereo not drawn), the GI50 is 49200 nM and the TGI is more than 100 µM.

`CCn1c(CO)nn(-c2cc(O[C@@H](C)C(F)(F)F)c(C(=O)Nc3c(F)cccc3Cl)cc2F)c1=O`: the GI50 is 30.4 nM and the TGI is more than 100 µM.

With `CC1CCC(=O)C(C(=O)CC2CC(=O)NC(=O)C2)C1` (stereo not drawn), the TGI is more than 100 µM.

With `O=C(Nc1ccc(CO)cc1)c1coc2ccccc2c1=O`, the GI50 was more than 100000 nM and the TGI is more than 100 µM.

For `CC(=O)/C=C/c1ccc(C#Cc2ccccc2)s1`, the GI50 is 15500 nM and the TGI came out at 29.6 µM.

Turning to `COc1cc(C2=C(c3cn(C)c4ccccc34)COC2=O)cc(OC)c1OC`, the GI50 is 36.4 nM and the TGI stood at 0.437 µM.

Another assay concerns OVCAR-4 ovarian. In words: NCI anticancer screen, dose series, 48 h.
Take `Nc1nc(SN=Nc2ccc(S(N)(=O)=O)cc2)c2[nH]cnc2n1`: the GI50 was 581 nM and the TGI is more than 51.1 µM.

Regarding `CCc1ccccc1NC(=O)c1sc2nc3c(cc2c1N)C(=O)CCC3`, the GI50 is 1540 nM and the TGI is more than 100 µM.

The compound `CC(C)CNC(=O)O` registered a TGI of more than 100 µM.

For `C[C@]12CC[C@@H]3c4ccc(O)cc4CC[C@H]3[C@@H]1CC[C@@H]2NS(=O)(=O)c1cccc(F)c1`, the GI50 was 2720 nM and the TGI worked out at 14.4 µM.

Compound `CCOC(=O)c1c[nH]c2oc(/C=N/N3CC(CN4CCOCC4)OC3=O)cc2c1=O` (stereo not drawn) gave a TGI of more than 100 µM.

As to `CCC(C)(C)c1ccc(OCCCCCCN2CCNCC2)cc1`, the GI50 is 1960 nM and the TGI was 5.03 µM.

In the case of `N#CC(=NCCO)C1=C(O)c2ccccc2C1=O`, the TGI was more than 100 µM.

Turning to `NC(CS/C(Cl)=C/Cl)C(=O)O` (stereo not drawn), the GI50 was 38300 nM and the TGI is more than 100 µM.

On to `CCn1c(CO)nn(-c2cc(O[C@@H](C)C(F)(F)F)c(C(=O)Nc3c(F)cccc3Cl)cc2F)c1=O`, for which the TGI is more than 100 µM.

Compound `CC1CCC(=O)C(C(=O)CC2CC(=O)NC(=O)C2)C1` (stereo not drawn) returned a TGI of more than 100 µM.

Turning to `O=C(Nc1ccc(CO)cc1)c1coc2ccccc2c1=O`, the GI50 was more than 100000 nM and the TGI was more than 100 µM.

In the case of `CC(=O)/C=C/c1ccc(C#Cc2ccccc2)s1`, the GI50 is 13100 nM and the TGI was 28.6 µM.

Regarding `COc1cc(C2=C(c3cn(C)c4ccccc34)COC2=O)cc(OC)c1OC`, the GI50 was 1270 nM and the TGI is more than 52.6 µM.

For a further assay, the system named is OVCAR-5 ovarian. In words: NCI anticancer screen, dose series, 48 h.
In the case of `Nc1nc(SN=Nc2ccc(S(N)(=O)=O)cc2)c2[nH]cnc2n1`, the GI50 was 629 nM and the TGI was more than 100 µM.

Take `CCc1ccccc1NC(=O)c1sc2nc3c(cc2c1N)C(=O)CCC3`: the GI50 was 1960 nM and the TGI is more than 100 µM.

As to `CC(C)CNC(=O)O`, the TGI was more than 100 µM.

For the compound `C[C@]12CC[C@@H]3c4ccc(O)cc4CC[C@H]3[C@@H]1CC[C@@H]2NS(=O)(=O)c1cccc(F)c1`, the GI50 is 4350 nM and the TGI worked out at 16.3 µM.

For the compound `CCOC(=O)c1c[nH]c2oc(/C=N/N3CC(CN4CCOCC4)OC3=O)cc2c1=O` (stereo not drawn), the TGI is more than 100 µM.

For the compound `CCC(C)(C)c1ccc(OCCCCCCN2CCNCC2)cc1`, the GI50 was 2110 nM and the TGI worked out at 5.39 µM.

`N#CC(=NCCO)C1=C(O)c2ccccc2C1=O` returned a TGI of more than 100 µM.

In the case of `NC(CS/C(Cl)=C/Cl)C(=O)O` (stereo not drawn), the GI50 is more than 100000 nM and the TGI is more than 100 µM.

`CCn1c(CO)nn(-c2cc(O[C@@H](C)C(F)(F)F)c(C(=O)Nc3c(F)cccc3Cl)cc2F)c1=O`: the GI50 is more than 100000 nM and the TGI is more than 100 µM.

`CC1CCC(=O)C(C(=O)CC2CC(=O)NC(=O)C2)C1` (stereo not drawn) returned a TGI of more than 100 µM.

Take `O=C(Nc1ccc(CO)cc1)c1coc2ccccc2c1=O`: the GI50 was more than 100000 nM and the TGI was more than 100 µM.

Turning to `CC(=O)/C=C/c1ccc(C#Cc2ccccc2)s1`, the GI50 was 15900 nM and the TGI was found to be 29.7 µM.

In the case of `COc1cc(C2=C(c3cn(C)c4ccccc34)COC2=O)cc(OC)c1OC`, the GI50 was 479 nM and the TGI was more than 100 µM.

The next assay has as its system SK-OV-3 ovarian. In words: NCI anticancer screen, dose series, 48 h.
Turning to `Nc1nc(SN=Nc2ccc(S(N)(=O)=O)cc2)c2[nH]cnc2n1`, the GI50 is 0.39 µM and the TGI is 13.6 µM.

On to `CCc1ccccc1NC(=O)c1sc2nc3c(cc2c1N)C(=O)CCC3`, for which the GI50 was 0.537 µM and the TGI came out at 75.7 µM.

`CC(C)CNC(=O)O` returned a TGI of more than 100 µM.

In the case of `C[C@]12CC[C@@H]3c4ccc(O)cc4CC[C@H]3[C@@H]1CC[C@@H]2NS(=O)(=O)c1cccc(F)c1`, the GI50 is 6.12 µM and the TGI was determined as 18.2 µM.

Turning to `CCOC(=O)c1c[nH]c2oc(/C=N/N3CC(CN4CCOCC4)OC3=O)cc2c1=O` (stereo not drawn), the TGI was more than 100 µM.

Regarding `CCC(C)(C)c1ccc(OCCCCCCN2CCNCC2)cc1`, the GI50 is 11.3 µM and the TGI was 25.7 µM.

Consider `N#CC(=NCCO)C1=C(O)c2ccccc2C1=O`, for which the TGI is more than 100 µM.

In the case of `NC(CS/C(Cl)=C/Cl)C(=O)O` (stereo not drawn), the GI50 is more than 100 µM and the TGI was more than 100 µM.

For the compound `CCn1c(CO)nn(-c2cc(O[C@@H](C)C(F)(F)F)c(C(=O)Nc3c(F)cccc3Cl)cc2F)c1=O`, the GI50 is 3.05 µM and the TGI is more than 100 µM.

Compound `CC1CCC(=O)C(C(=O)CC2CC(=O)NC(=O)C2)C1` (stereo not drawn) yielded a TGI of more than 100 µM.

On to `O=C(Nc1ccc(CO)cc1)c1coc2ccccc2c1=O`, for which the GI50 is more than 100 µM and the TGI was more than 100 µM.

In the case of `CC(=O)/C=C/c1ccc(C#Cc2ccccc2)s1`, the GI50 was 17.3 µM and the TGI was found to be 31.1 µM.

As to `COc1cc(C2=C(c3cn(C)c4ccccc34)COC2=O)cc(OC)c1OC`, the GI50 was 0.269 µM.
